Laboratory results from ChEMBL document CHEMBL2424575 (Eur J Med Chem, 2013).

Assays:
Dipeptidyl peptidase 8 = Dipeptidyl peptidase 8 (Homo sapiens, UniProt Q6V1X1); test: Inhibition of DPP-8 (unknown origin)
Cytochrome P450 3A4 = Cytochrome P450 3A4 (Homo sapiens, UniProt P08684); test: Inhibition of CYP3A (unknown origin); type: ADME
Dipeptidyl peptidase 9 = Dipeptidyl peptidase 9 (Homo sapiens, UniProt Q86TI2)
Description: Inhibition of DPP-9 (unknown origin)

[1] = Half life in Sprague-Dawley rat at 25 mg/kg, po; type: ADME, organism-based; parameters: dose 25 mg/kg, route oral; conditions: in vivo
[2] = Oral bioavailability in Sprague-Dawley rat at 25 mg/kg; type: ADME, organism-based; conditions: in vivo
Mus musculus [3] = test: In vivo inhibition of DPP-4 in ICR mouse assessed as cleavage rate of Gly-Pro-AMC in plasma at 1 mg/kg, po measured at 4.5 hrs by fluorescence assay relative to control; type: functional
[4] = Half life in Sprague-Dawley rat at 5 mg/kg, iv; type: ADME, organism-based; parameters: dose 5 mg/kg, route intravenous; conditions: in vivo
[5] = Plasma clearance in Sprague-Dawley rat at 5 mg/kg, iv and 25 mg/kg, po; type: ADME, organism-based
[6] = AUC (0 to t) in Sprague-Dawley rat at 25 mg/kg, po; type: ADME, organism-based; parameters: dose 25 mg/kg, route oral; conditions: plasma
Mus musculus [7] = test: In vivo inhibition of DPP-4 in ICR mouse assessed as cleavage rate of Gly-Pro-AMC in plasma at 1 mg/kg, po measured at 24 hrs by fluorescence assay relative to control; type: functional
[8] = Apparent volume of distribution during terminal phase in Sprague-Dawley rat at 5 mg/kg, iv and 25 mg/kg, po; type: ADME, organism-based; conditions: in vivo, read-out: Vz/F
[9] = target: Voltage-gated inwardly rectifying potassium channel KCNH2 (Homo sapiens, UniProt Q12809); test: Inhibition of human ERG
Sequence of Voltage-gated inwardly rectifying potassium channel KCNH2 (Q12809 whole entry): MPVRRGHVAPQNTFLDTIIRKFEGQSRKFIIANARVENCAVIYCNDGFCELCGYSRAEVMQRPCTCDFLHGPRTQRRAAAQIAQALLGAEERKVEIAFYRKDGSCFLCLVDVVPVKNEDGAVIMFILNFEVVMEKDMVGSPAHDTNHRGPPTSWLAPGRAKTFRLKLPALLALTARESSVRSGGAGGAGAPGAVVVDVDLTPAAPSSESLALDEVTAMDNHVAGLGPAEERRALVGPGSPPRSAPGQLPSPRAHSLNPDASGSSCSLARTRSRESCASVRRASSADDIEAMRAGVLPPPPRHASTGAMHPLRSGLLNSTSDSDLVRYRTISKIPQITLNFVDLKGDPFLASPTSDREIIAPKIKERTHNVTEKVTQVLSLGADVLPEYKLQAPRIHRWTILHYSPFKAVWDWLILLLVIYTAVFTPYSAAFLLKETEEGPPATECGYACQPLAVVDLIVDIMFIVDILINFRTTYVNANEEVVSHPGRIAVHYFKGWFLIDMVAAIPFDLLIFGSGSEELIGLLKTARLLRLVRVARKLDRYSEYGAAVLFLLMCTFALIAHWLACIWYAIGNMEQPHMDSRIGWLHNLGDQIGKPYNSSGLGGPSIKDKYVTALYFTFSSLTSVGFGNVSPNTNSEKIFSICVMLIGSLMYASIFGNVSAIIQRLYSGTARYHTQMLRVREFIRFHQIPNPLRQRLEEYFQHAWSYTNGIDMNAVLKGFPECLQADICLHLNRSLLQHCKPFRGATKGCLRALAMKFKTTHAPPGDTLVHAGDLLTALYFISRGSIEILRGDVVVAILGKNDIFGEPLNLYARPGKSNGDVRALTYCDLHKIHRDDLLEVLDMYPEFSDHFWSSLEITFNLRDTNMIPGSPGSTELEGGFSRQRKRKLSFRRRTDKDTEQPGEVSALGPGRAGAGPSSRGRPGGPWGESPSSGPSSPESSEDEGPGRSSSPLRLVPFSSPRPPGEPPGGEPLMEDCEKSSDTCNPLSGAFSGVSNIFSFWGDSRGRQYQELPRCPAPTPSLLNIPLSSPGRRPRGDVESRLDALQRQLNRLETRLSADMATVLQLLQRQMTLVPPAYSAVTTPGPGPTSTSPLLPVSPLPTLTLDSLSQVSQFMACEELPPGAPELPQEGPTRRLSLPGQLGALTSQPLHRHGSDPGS

Mus musculus [10] = test: In vivo inhibition of DPP-4 in ICR mouse assessed as cleavage rate of Gly-Pro-AMC in plasma at 1 mg/kg, po measured at 7 hrs by fluorescence assay relative to control; type: functional
Mus musculus [11] = test: In vivo inhibition of DPP-4 in ICR mouse assessed as cleavage rate of Gly-Pro-AMC in plasma at 3 mg/kg, po measured at 7 hrs by fluorescence assay relative to control; type: functional
Mus musculus [12] = test: In vivo inhibition of DPP-4 in ICR mouse assessed as cleavage rate of Gly-Pro-AMC in plasma at 3 mg/kg, po measured at 4.5 hrs by fluorescence assay relative to control; type: functional
Mus musculus [13] = test: In vivo inhibition of DPP-4 in ICR mouse assessed as cleavage rate of Gly-Pro-AMC in plasma at 1 mg/kg, po measured at 0.5 hrs by fluorescence assay relative to control; type: functional
Mus musculus [14] = test: In vivo inhibition of DPP-4 in ICR mouse assessed as cleavage rate of Gly-Pro-AMC in plasma at 3 mg/kg, po measured at 24 hrs by fluorescence assay relative to control; type: functional
Mus musculus [15] = test: In vivo inhibition of DPP-4 in ICR mouse assessed as cleavage rate of Gly-Pro-AMC in plasma at 3 mg/kg, po measured at 0.5 hrs by fluorescence assay relative to control; type: functional

Sequence of Dipeptidyl peptidase 9 (Q86TI2 whole entry): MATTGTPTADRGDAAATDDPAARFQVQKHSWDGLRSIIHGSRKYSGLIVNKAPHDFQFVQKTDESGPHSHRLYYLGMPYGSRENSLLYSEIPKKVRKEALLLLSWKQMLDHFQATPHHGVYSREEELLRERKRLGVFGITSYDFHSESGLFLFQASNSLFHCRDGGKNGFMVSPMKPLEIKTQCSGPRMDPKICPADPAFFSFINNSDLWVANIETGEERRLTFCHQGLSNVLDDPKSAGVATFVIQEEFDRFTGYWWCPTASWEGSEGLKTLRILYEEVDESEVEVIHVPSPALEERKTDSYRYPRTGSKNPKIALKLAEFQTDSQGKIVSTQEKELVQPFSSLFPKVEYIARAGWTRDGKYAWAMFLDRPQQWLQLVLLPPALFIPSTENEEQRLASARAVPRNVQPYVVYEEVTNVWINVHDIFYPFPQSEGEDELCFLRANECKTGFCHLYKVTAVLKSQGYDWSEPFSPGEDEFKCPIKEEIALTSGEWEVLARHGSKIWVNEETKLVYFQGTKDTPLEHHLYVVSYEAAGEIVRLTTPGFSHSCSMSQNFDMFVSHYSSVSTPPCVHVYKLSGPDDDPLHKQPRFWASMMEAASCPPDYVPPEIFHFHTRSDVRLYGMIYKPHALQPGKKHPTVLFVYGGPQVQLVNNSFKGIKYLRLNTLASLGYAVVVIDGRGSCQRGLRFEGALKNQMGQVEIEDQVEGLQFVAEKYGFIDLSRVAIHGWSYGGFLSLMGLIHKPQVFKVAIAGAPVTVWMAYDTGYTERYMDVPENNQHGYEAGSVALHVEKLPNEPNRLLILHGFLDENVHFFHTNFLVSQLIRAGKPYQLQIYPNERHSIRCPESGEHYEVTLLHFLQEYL
Sequence of Dipeptidyl peptidase 8 (Q6V1X1 whole entry): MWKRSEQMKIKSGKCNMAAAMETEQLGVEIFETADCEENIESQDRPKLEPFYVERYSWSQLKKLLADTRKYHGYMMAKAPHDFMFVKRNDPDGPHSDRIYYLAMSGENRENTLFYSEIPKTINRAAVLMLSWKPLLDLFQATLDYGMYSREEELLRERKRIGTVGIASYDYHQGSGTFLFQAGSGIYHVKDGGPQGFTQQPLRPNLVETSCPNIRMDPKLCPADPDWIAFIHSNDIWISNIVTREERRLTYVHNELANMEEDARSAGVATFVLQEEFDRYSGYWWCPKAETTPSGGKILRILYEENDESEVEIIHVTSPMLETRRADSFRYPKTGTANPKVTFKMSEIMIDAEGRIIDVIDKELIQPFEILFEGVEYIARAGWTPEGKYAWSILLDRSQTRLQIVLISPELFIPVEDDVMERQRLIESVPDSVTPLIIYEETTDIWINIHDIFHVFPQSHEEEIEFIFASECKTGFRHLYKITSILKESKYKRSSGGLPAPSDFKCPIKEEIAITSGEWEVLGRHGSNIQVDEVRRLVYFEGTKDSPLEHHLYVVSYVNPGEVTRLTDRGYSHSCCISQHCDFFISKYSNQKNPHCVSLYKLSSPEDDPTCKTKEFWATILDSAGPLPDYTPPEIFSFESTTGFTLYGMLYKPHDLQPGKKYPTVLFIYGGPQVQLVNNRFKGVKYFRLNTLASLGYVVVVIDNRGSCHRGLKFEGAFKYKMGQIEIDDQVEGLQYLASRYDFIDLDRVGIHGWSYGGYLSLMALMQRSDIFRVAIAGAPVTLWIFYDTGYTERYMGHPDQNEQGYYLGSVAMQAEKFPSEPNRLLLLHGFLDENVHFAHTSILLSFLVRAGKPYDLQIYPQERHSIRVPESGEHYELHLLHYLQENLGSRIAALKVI
Sequence of Cytochrome P450 3A4 (P08684 whole entry): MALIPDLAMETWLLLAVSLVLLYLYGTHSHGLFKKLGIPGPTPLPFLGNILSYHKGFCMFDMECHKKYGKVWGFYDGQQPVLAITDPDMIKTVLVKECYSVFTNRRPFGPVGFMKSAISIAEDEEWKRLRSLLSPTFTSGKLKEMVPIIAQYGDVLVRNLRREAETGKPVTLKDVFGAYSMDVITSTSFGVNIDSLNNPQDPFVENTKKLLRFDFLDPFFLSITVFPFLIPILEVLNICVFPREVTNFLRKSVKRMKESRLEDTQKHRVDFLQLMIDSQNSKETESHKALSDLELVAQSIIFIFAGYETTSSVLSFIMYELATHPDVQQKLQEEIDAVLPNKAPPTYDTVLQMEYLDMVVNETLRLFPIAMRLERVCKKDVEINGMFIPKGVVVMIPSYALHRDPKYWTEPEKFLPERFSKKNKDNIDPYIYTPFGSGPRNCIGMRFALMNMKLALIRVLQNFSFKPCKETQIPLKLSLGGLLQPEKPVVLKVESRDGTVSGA

IC50 (Dipeptidyl peptidase 8) [µM]	IC50 (Cytochrome P450 3A4) [µM]	IC50 (Dipeptidyl peptidase 9) [µM]	SMILES	other results
> 100	97.9	> 100	CC#CCn1c(N2CCC[C@@H](N)C2)cc(=O)n(Cc2ccc3ccccc3n2)c1=O	half-life [1]: 4.2 h; bioavailability [2]: 63%
> 100	42.2	> 100	CC#CCn1c(N2CCC[C@@H](N)C2)cc(=O)n(Cc2ccc3cc(OC)ccc3n2)c1=O	
			Cn1c(=O)cc(N2CCC[C@@H](N)C2)n(Cc2ccccc2C#N)c1=O [ALOGLIPTIN]	inhibition in vivo at 1 mg/kg (Mus musculus [3]): 49.4%; inhibition in vivo at 1 mg/kg (Mus musculus [7]): 0.5%; inhibition in vivo at 1 mg/kg (Mus musculus [10]): 27.6%; half-life [1]: 2 h; inhibition in vivo at 3 mg/kg (Mus musculus [11]): 50.9%; inhibition in vivo at 3 mg/kg (Mus musculus [12]): 71.5%; inhibition in vivo at 1 mg/kg (Mus musculus [13]): 72.6%; inhibition in vivo at 3 mg/kg (Mus musculus [14]): 0.8%; inhibition in vivo at 3 mg/kg (Mus musculus [15]): 83.8%
> 100		> 100	CC#CCn1c(N2CCC[C@@H](N)C2)cc(=O)n(CC#CC)c1=O	
> 100	46.2	> 100	CC#CCn1c(N2CCC[C@@H](N)C2)cc(=O)n(Cc2ccc3cc(C)ccc3n2)c1=O	
> 100	91.9	> 100	CC#CCn1c(N2CCC[C@@H](N)C2)cc(=O)n(Cc2ccc3cc(Cl)ccc3n2)c1=O	
> 100		> 100	CC#CCn1c(N2CCC[C@@H](N)C2)cc(=O)n(Cc2ccccc2)c1=O	
> 100	54.7	> 100	CC#CCn1c(N2CCC[C@@H](N)C2)cc(=O)n(Cc2ccc3ccc(F)cc3n2)c1=O	
> 100		> 100	CC#CCn1c(N2CCC[C@@H](N)C2)cc(=O)n(Cc2ncccn2)c1=O	
> 100	14.1		CC#CCn1c(N2CCC[C@@H](N)C2)cc(=O)n(Cc2cc(Cl)c3ccccc3n2)c1=O	
> 100		> 100	CC#CCn1c(N2CCC[C@@H](N)C2)cc(=O)n(Cc2nc3ccccc3[nH]2)c1=O	
> 100		> 100	CC#CCn1c(N2CCC[C@@H](N)C2)cc(=O)n(Cc2ccc3c(ccc4ccccc43)n2)c1=O	
> 100	58.3	> 100	CC#CCn1c(N2CCC[C@@H](N)C2)cc(=O)n(Cc2ccc3cc(F)ccc3n2)c1=O	
> 100	79.4	> 100	CC#CCn1c(N2CCC[C@@H](N)C2)cc(=O)n(Cc2ccc3cc(Br)ccc3n2)c1=O	

SMILES	IC50 (Dipeptidyl peptidase 8) [µM]	IC50 (Cytochrome P450 3A4) [µM]	IC50 (Dipeptidyl peptidase 9) [µM]	other results
CC#CCn1c(N2CCC[C@@H](N)C2)cc(=O)n(Cc2ccc3ccc(Cl)cc3n2)c1=O	> 100	46.2	> 100	inhibition in vivo at 1 mg/kg (Mus musculus [3]): 76%; half-life [4]: 5.65 h; clearance [5]: 17.5 mL/min/kg; AUC(0-t) [6]: 17600 ng·h/mL; inhibition in vivo at 1 mg/kg (Mus musculus [7]): 11.5%; Vd/F [8]: 8.65 L/kg; IC50 [9]: > 100 µM; inhibition in vivo at 1 mg/kg (Mus musculus [10]): 71.6%; half-life [1]: 5.02 h; inhibition in vivo at 3 mg/kg (Mus musculus [11]): 82.3%; inhibition in vivo at 3 mg/kg (Mus musculus [12]): 84.7%; inhibition in vivo at 1 mg/kg (Mus musculus [13]): 51.8%; inhibition in vivo at 3 mg/kg (Mus musculus [14]): 13.5%; bioavailability [2]: 73%; inhibition in vivo at 3 mg/kg (Mus musculus [15]): 80.4%
